# Where “and” joins values, the source holds several entries; their conditions need not be identical. Equal values may be shown once. Read-outs that look alike come from different tables or passages of the source.
# Key:
# IDH1 wild-type [1] = molecular target: T1, IDH1 wild-type (Homo sapiens (Human), UniProt O75874); test: IDH1/2 activity assay, reverse reaction (α-KG, NADPH), stopped-flow, IDH1 wild-type; type: biochemical; conditions: Reductive (→ NADP+); WT; est.
# Description: (§1) Enzymatic binding constants were determined using curve fitting algorithms to standard kinetic models with the Sigmaplot software package (Systat Software, San Jose, Calif.). For determination of kcat, enzyme was incubated with 5×Km of substrate and cofactor; consumption of NADPH or NADP was determined by a change in the OD340 over time. In both cases an extinction coefficient of 6200 M^−1 cm^−1 was used for NADPH.
# IDH1 wild-type [2] = molecular target: T1, IDH1 wild-type; test: IDH1/2 activity assay, forward reaction (isocitrate, NADP+), stopped-flow, IDH1 wild-type; type: biochemical; conditions: Oxidative (→ NADPH), WT
# Description: as §1
# IDH1 R132H [3] = molecular target: T2, IDH1 R132H (Homo sapiens (Human), UniProt O75874, R132H); test: Reduction of α-KG with NADPH by IDH1 R132H; type: biochemical
# Description: (§2) In these reactions, substrate was varied while the cofactor was held constant at 500 uM. All reactions were performed in 50 mM potassium phosphate buffer, pH 6.5, 10% glycerol, 0.03% (w/v) BSA, 5 mM MgCl2, and 40 mM sodium hydrocarbonate. Reaction progress was followed by spectroscopy at 340 nM monitoring the change in oxidation state of the cofactor. Sufficient enzyme was added to give a linear change in absorbance for 10 minutes.
# IDH1 wild-type [4] = molecular target: T1, IDH1 wild-type; test: Oxidative decarboxylation of isocitrate to α-KG by IDH1 wild-type (340 nm); type: biochemical; conditions: for effect on oxidative decarboxylation of isocitrate by wild-type ICDH1: added in a titration series
# Description: (§3) In these reactions, the substrate was varied while the cofactor was held constant at 500 uM. All reactions were performed in 150 mM NaCl, 20 mM Tris-Cl, pH 7.5, 10% glycerol, and 0.03% (w/v) BSA). Reaction progress was followed by spectroscopy at 340 nM monitoring the change in oxidation state of the cofactor. Sufficient enzyme was added to give a linear change in absorbance for 10 minutes.
# (§4) A well-known regulatory mechanism for control of metabolic enzymes is feedback inhibition, in which the product of the reaction acts as a negative regulator for the generating enzyme.
# IDH1 R132H [5] = molecular target: T2, IDH1 R132H; test: Oxidative decarboxylation of isocitrate to α-KG by IDH1 R132H (340 nm); type: biochemical
# Description: as §3, §4
# IDH1 R132S [6] = molecular target: T3, IDH1 R132S (Homo sapiens (Human), UniProt O75874, R132S); test: Reduction of α-KG with NADPH by IDH1 R132S; type: biochemical
# Description: as §2
# IDH1 wild-type [7] = molecular target: T1, IDH1 wild-type; test: Reduction of α-KG with NADPH by IDH1 wild-type; type: biochemical; conditions: 40 ug/ml enzyme
# Description: as §2
# IDH1 R132C [8] = molecular target: T4, IDH1 R132C (Homo sapiens (Human), UniProt O75874, R132C); test: IDH1/2 activity assay, reverse reaction (α-KG, NADPH), stopped-flow, IDH1 R132C; type: biochemical; conditions: Reductive (→ NADP+)
# Description: as §1
# IDH1 R132C [9] = molecular target: T4, IDH1 R132C; test: IDH1/2 activity assay, forward reaction (isocitrate, NADP+), stopped-flow, IDH1 R132C; type: biochemical
# Description: as §1
# IDH1 R132S [10] = molecular target: T3, IDH1 R132S; test: Oxidative decarboxylation of isocitrate to α-KG by IDH1 R132S (340 nm); type: biochemical
# Description: as §3, §4
# IDH1 wt [11] = molecular target: T5, IDH1 wt (Homo sapiens (Human), UniProt O75874); test: IDH1 wt assay for inhibitor selectivity (1×Km of NADPH); type: biochemical; conditions: 1x Km NADPH; for IC50: read-out: IDH1wt IC50 @ 1x Km
# Description: (§5) The selectivity between wild type vs mutant could be >20-fold.
# ICDH1 R132H = ICDH1 R132H (Homo sapiens (Human), UniProt O75874, R132H); test: IDH1 R132H inhibition assay (NADPH/aKG, resazurin to resorufin fluorescence); type: biochemical; conditions: for IC50 Ratio (40/4): ratio of IC50 at 40 uM to 4 uM NADPH; for IC50: IDH1 R132H
# Description: Assays were conducted in a volume of 76 ul assay buffer (150 mM NaCl, 10 mM MgCl2, 20 mM Tris pH 7.5, 0.03% bovine serum albumin) as follows in a standard 384-well plate: To 25 ul of substrate mix ([…], 2 mM aKG), 1 ul of test compound was added in DMSO. […] The reaction was incubated for 50 minutes at room temperature, then 25 ul of detection mix (30 uM resazurin, […]) was added and the mixture further incubated for 5 minutes at room temperature. The conversion of resazurin to resorufin was detected by fluorescent spectroscopy at Ex544 Em590 c/o 590.
# as §5
# glioblastoma multiforme [12] = conditions: cited from earlier work
# glioblastoma multiforme [13] = conditions: cited from earlier work; remark: listed apart in the source
# recurrent glioma = recurrent glioma patients; cited from earlier work
# IDH1 wt [14] = molecular target: T5, IDH1 wt; test: Reduction of alpha-ketoglutarate with NADH by IDH1 wild type; type: biochemical; conditions: IDH1 wt 5 ug/ml, NADH 0.5 mM
# Description: (§6) In order to evaluate the ability of the mutant enzymes to utilize NADH in the reduction of alpha-ketoglutarate, the following experiment was conducted.
# IDH1 R132S [15] = molecular target: T3, IDH1 R132S; test: Reduction of alpha-ketoglutarate with NADH by IDH1 R132S; type: biochemical; conditions: NADH 0.5 mM, alpha-Ketoglutarate 5 mM, R132S 30 ug/ml
# Description: as §6
# IDH1 R132H [16] = molecular target: T2, IDH1 R132H; test: Reduction of alpha-ketoglutarate with NADH by IDH1 R132H; type: biochemical; conditions: R132H 60 ug/ml, NADH 0.5 mM
# Description: as §6
# [17] = for α-KG, cofactor 500 uM, pH 6.5
# [18] = α-KG varied, cofactor 500 uM, pH 6.5
# [19] = α-KG product inhibition, competitive with isocitrate, read-out: Ki
# [20] = read-out: ICDH IC50 (uM) @ 4 uM (10x Km) NADPH, 4 uM (10x Km) NADPH
# [21] = read-out: ICDH IC50 (uM) @ 40 uM NADPH, 40 uM (100x Km) NADPH
# [22] = for isocitrate, cofactor 500 uM
# [23] = with radiation, vs radiation alone
# [24] = without MGMT promoter methylation
# T5 sequence (O75874 whole entry): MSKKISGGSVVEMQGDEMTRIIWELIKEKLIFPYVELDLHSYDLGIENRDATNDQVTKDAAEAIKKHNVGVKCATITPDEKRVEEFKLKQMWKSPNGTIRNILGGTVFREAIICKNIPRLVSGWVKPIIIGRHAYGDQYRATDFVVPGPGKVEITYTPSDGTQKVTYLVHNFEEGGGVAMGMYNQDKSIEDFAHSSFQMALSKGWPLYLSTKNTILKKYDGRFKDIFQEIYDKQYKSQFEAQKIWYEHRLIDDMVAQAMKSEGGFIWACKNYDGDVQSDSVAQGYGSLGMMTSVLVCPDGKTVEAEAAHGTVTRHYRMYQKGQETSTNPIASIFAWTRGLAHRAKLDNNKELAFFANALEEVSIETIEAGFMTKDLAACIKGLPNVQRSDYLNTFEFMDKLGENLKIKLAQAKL
# T1 sequence (O75874 whole entry): as above
# Sequence of ICDH1 R132H (O75874 whole entry R132H): as the sequence (O75874 whole entry) above, with R132H counted along it
# T2 sequence (O75874 whole entry R132H): as the sequence (O75874 whole entry) above, with R132H counted along it
# T3 sequence (O75874 whole entry R132S): as the sequence (O75874 whole entry) above, with R132S counted along it
# T4 sequence (O75874 whole entry R132C): as the sequence (O75874 whole entry) above, with R132C counted along it
compound,measurement,setting,value
WT,kcat,IDH1 wild-type [1],~7 (est.) s^−1
same,kcat,IDH1 wild-type [2],130000 s⁻¹
"O=C(O)CCC(=O)C(=O)O [α-KG, α-Ketoglutarate]",Km,IDH1 R132H [3]; [17],965 µM
same,Hill Constant,IDH1 R132H [3]; α-KG varied,1.8
same,Vmax,IDH1 R132H [3]; [18],1.3 µmol/min/mg
same,Ki,IDH1 wild-type [4]; [19],612 µM
same,Ki,IDH1 R132H [5]; [19],28.6 µM
same,increase in sensitivity to feedback inhibition as compared to the wild-type enzyme,"IDH1 R132H [5]; α-KG, R132H vs wild-type",20 fold
same,Km,IDH1 R132S [6]; [17],181 µM
same,Ki,IDH1 R132S [6]; uncompetitive substrate inhibition by α-KG,24600 µM
same,Hill Constant,IDH1 R132S [6]; α-KG varied,0.479
same,Vmax,IDH1 R132S [6]; [18],2.7 µmol/min/mg
same,NADPH consumption in reduction of α-KG,IDH1 wild-type [7],unable to consume NADPH
same,Km,"IDH1 R132C [8]; read-out: KM,αKG",295 µM
same,Ki,"IDH1 R132C [9]; Oxidative (→ NADPH), read-out: Ki,αKG",61 µM
same,Ki,IDH1 R132S [10]; [19],45.3 µM
same,increase in sensitivity to feedback inhibition as compared to the wild-type enzyme,"IDH1 R132S [10]; α-KG, R132S vs wild-type",13 fold
same,Ki,"IDH1 wild-type [2]; read-out: Ki,αKG",610 µM
NC(=O)c1ccc[n+]([C@@H]2O[C@H](COP(=O)([O-])OP(=O)(O)OC[C@H]3O[C@@H](n4cnc5c(N)ncnc54)[C@H](OP(=O)(O)O)[C@@H]3O)[C@@H](O)[C@H]2O)c1 [NADP+],Km,"IDH1 R132C [9]; Oxidative (→ NADPH), read-out: KM,NADP+",21 µM
O=C(O)CC[C@@H](O)C(=O)O [(R)-2-hydroxyglutarate],effect on oxidative decarboxylation of isocitrate by wild-type ICDH1,IDH1 wild-type [4],did not show any effect
Cc1ccc(C2=NN(c3ccccc3)C(c3cn(CCC(=O)O)nc3-c3ccccc3)C2)cc1 (stereo not drawn),IDH1wt IC50 @ 1x Km (uM),IDH1 wt [11],NO inhibition
same,IC50 Ratio (40/4),ICDH1 R132H,3.38
same,IC50,ICDH1 R132H; [20],12.3 µM
same,IC50,ICDH1 R132H; [21],41.4 µM
"O=C(O)C(=O)C(C(=O)O)C(O)C(=O)O (stereo not drawn) [Oxalomalate, oxalomalate]",Ki,"IDH1 wild-type [4]; IDH1 wt 1.5 ug/ml, NADP 0.5 mM, DL-isocitrate 5-650 uM, read-out: Oxalomalate Ki",955 µM
same,Ki,"IDH1 R132H [5]; IDH1R132H 60 ug/ml, NADP 0.5 mM, DL-isocitrate 5-650 uM, read-out: Oxalomalate Ki",951 µM
same,susceptibility to inhibition by oxalomalate,IDH1 R132H [5]; R132H vs wt,essentially unaffected
same,Ki,"IDH1 R132S [10]; IDH1R132S 30 ug/ml, NADP 0.5 mM, DL-isocitrate 5-650 uM, read-out: Oxalomalate Ki",510 µM
same,increase in susceptibility to inhibition by oxalomalate,IDH1 R132S [10]; R132S vs wt,two-fold
O=C(O)CC(C(=O)O)C(O)C(=O)O (stereo not drawn) [isocitrate],Km,IDH1 wild-type [4]; [22],56.8 µM
same,Km,IDH1 R132H [5]; [22],172 µM
same,Km,"IDH1 R132C [9]; read-out: KM,isocitrate, Oxidative (→ NADPH)",87000 µM
same,Km,"IDH1 wild-type [2]; read-out: KM,isocitrate",57 µM
O=C1NC(=S)S/C1=C\c1cccc(OC(=O)c2cccc(F)c2)c1,IC50,IDH1 wt [11],19.2 µM
same,IC50 Ratio (40/4),ICDH1 R132H,1.15
same,IC50,ICDH1 R132H; [20],12.8 µM
same,IC50,ICDH1 R132H; [21],14.7 µM
NC(=O)C1=CN([C@@H]2O[C@H](COP(=O)(O)OP(=O)(O)OC[C@H]3O[C@@H](n4cnc5c(N)ncnc54)[C@H](OP(=O)(O)O)[C@@H]3O)[C@@H](O)[C@H]2O)C=CC1 [NADPH],Km,"IDH1 R132C [8]; read-out: KM,NADPH",0.3 µM
R132C,kcat,IDH1 R132C [8],550 s⁻¹
same,kcat,IDH1 R132C [9]; Oxidative (→ NADPH),710 s⁻¹
Cc1cc(C(=O)O)ccc1-c1ccc(/C=C2/NC(=O)N(Cc3ccc(Br)cc3)C2=O)o1,IC50,IDH1 wt [11],46.8 µM
same,IC50 Ratio (40/4),ICDH1 R132H,1.28
same,IC50,ICDH1 R132H; [20],15 µM
same,IC50,ICDH1 R132H; [21],19.2 µM
"Cn1nnc2c(C(N)=O)ncn2c1=O [temozolomide, Temozolomide]",tolerability,glioblastoma multiforme [12]; in vivo,well tolerated
same,likelihood of being alive in 2 years,glioblastoma multiforme [12]; [23],26%
same,median progression-free survival,glioblastoma multiforme [12]; [23],6.9 mo
same,overall survival,glioblastoma multiforme [12]; [23],14.6 mo
same,2-year survival rate,glioblastoma multiforme [13]; with MGMT promoter methylation,46%
same,median survival,glioblastoma multiforme [13]; with MGMT promoter methylation,21.7 months
same,2-year survival rate,glioblastoma multiforme [13]; [24],13.8%
same,median survival,glioblastoma multiforme [13]; [24],12.7 months
same,6-month survival,recurrent glioma,21%
Cc1c(/C=C2\Sc3ccccc3C2=O)c(O)n2c(nc3ccccc32)c1C#N,IC50,IDH1 wt [11],16.2 µM
same,IC50 Ratio (40/4),ICDH1 R132H,17.42
same,IC50,ICDH1 R132H; [20],5.74 µM
same,IC50,ICDH1 R132H; [21],> 100 µM
O=C1NC(=S)S/C1=C/c1cccc(OCc2ccc([N+](=O)[O-])cc2)c1,IC50,IDH1 wt [11],69.3 µM
same,IC50 Ratio (40/4),ICDH1 R132H,1.39
same,IC50,ICDH1 R132H; [20],23.8 µM
same,IC50,ICDH1 R132H; [21],33.2 µM
"O=C(O)CCC(O)C(=O)O (stereo not drawn) [reaction product 2-HG, 2-hydroxyglutarate]",effect on oxidative decarboxylation of isocitrate by wild-type ICDH1,IDH1 wild-type [4],inhibit
[Cl-].[Cl-].[Mg+2] [MgCl2],Km,"IDH1 R132C [9]; Oxidative (→ NADPH), read-out: KM,MgCl2",450 µM
NC(=O)C1=CN([C@@H]2O[C@H](COP(=O)(O)OP(=O)(O)OC[C@H]3O[C@@H](n4cnc5c(N)ncnc54)[C@H](O)[C@@H]3O)[C@@H](O)[C@H]2O)C=CC1 [NADH],consumption of NADH in the presence of alpha-ketoglutarate,IDH1 wt [14],no measurable consumption
same,"Consumption of NADH, Mean",IDH1 R132S [15],0.709 Umol/min/mg
same,"Consumption of NADH, individual runs",IDH1 R132S [15],0.7183 Umol/min/mg and 0.6997 Umol/min/mg
same,"Rate, consumption of NADH, Mean",IDH1 R132S [15],0.001103 ΔA/sec
same,"Rate, consumption of NADH, individual runs",IDH1 R132S [15],0.001117 ΔA/sec and 0.001088 ΔA/sec
same,consumption of NADH in the presence of alpha-ketoglutarate,IDH1 R132H [16],no measurable consumption

# — patent US10610125B2, “Methods and compositions for cell-proliferation-related disorders” (Agios Pharmaceuticals, Inc., priority 2009, dated 2020)
